Reference: PMC4627231, “Targeting the sugar metabolism of tumors with a first-in-class 6-phosphofructo-2-kinase (PFKFB4) inhibitor” (Oncotarget, 2015)

What was measured:
glycolysis in H460 cells = assay: Glycolysis assay (3H2O from 5-[3H]glucose); format: cell-based, human; settings: 10 μM, 6-72 hours
Description: Cells growing in 6-well plates were incubated in 500 μl of complete medium containing 1 μCi of 5-[^3H]glucose per well for 60 min in 5% CO2 at 37°C. Media was collected, ^3H2O formed via glycolysis from the 5-[^3H]glucose measured and counts normalized as previously described. All data are expressed as the mean ± SD of three experiments. Statistical significance was assessed by the two-sample t test (independent variable).

H460 cells = assay: Apoptosis by flow cytometry (annexin V / propidium iodide); format: cell-based, human; settings: 10μM 5MPN
Description: To measure apoptosis, cells were stained with annexin V and propidium iodide and examined as previously described. For cell cycle experiments, cells were detached, washed with cold PBS and fixed in 70% ethanol at 4°C for 30 minutes. The cells then were pelleted by centrifugation, resuspended in PBS containing PI and RNase A, incubated at 37°C in the dark for 30 minutes and analyzed by flow cytometry (BD FACSCalibur). Data were analyzed using FlowJo software (TREE STAR Inc.). Results were calculated as the mean ± SD of three experiments and data shown are representative of three independent experiments.

A549 cells = assay: Viable cell count (trypan blue exclusion); format: cell-based, human; settings: A549, 48 hours
Description: (§1) Viability was determined using trypan blue exclusion as previously described. Cells were incubated in 20% trypan blue (Sigma) for 5 minutes. Cells excluding trypan blue were counted using a standard hemocytometer (Hausser Scientific) to determine total numbers of viable cells. Data are expressed as mean ± SD of three experiments.

MDA-MB-231 cells = assay: Viable cell count (trypan blue exclusion); format: cell-based, human; settings: MDA-MB-231, 48 hours
Description: as §1

LNCaP cells = assay: Viable cell count (trypan blue exclusion); format: cell-based, human; settings: 48 hours
Description: as §1

hT/LT/Ras cells = assay: Viable cell count (trypan blue exclusion); format: cell-based, human; settings: live cells counted at 48 hours
Description: as §1

human recombinant PFKFB3 = human recombinant PFKFB3 (Homo sapiens, UniProt Q16875); assay: In vitro kinase assay with purified recombinant human PFKFB3; format: biochemical; settings: 10 μM
Description: Figure 1 Compound 5MPN inhibits recombinant PFKFB4 enzyme activity A. Representation of the 5MPN molecule docked in the crystal structure of rat testes PFKFB4. 5MPN is shown in thicker stick representation than the surrounding protein residues. B. Molecular structure of 5MPN (MW, 305.3 Da). In vitro kinase assays using purified recombinant human PFKFB4 were performed as described in the presence or absence of 0.1, 1 or 10 μM 5MPN. Michaelis-Menten C. and Lineweaver-Burk double reciprocal D. plots examining PFKFB4 enzyme activity as a function of F6P concentration (0 - 2000 μmol/L) are shown. E. In vitro kinase assays using purified recombinant human PFKFB3 were performed as described in the presence or absence of 0.1, 1 or 10 μM 5MPN and the Michaelis-Menten plot examining PFKFB3 enzyme activity as a function of F6P concentration (0 - 400 μmol/L) is shown. Data shown are representative of three independent experiments. […] The activity of 5MPN against 97 kinases was examined using a commercially available active-site dependent competition binding assay core service (KINOMEscanEDGE) that quantifies the capacity of test agents to compete with an immobilized, active-site directed ligand using a DNA-tagged kinase and immobilized ligand and compound.

[1] = test system: panel of 97 protein kinases; assay: KINOMEscan active-site dependent competition binding assay; settings: 10 μM, data not shown
Description: The fructose-6-phosphate kinase activity of human recombinant PFKFB4 and human recombinant PFKFB3 in the presence of DMSO ± indicated concentrations of 5MPN was assayed as previously described. The activity of 5MPN against 97 kinases was examined using a commercially available active-site dependent competition binding assay core service (KINOMEscanEDGE) that quantifies the capacity of test agents to compete with an immobilized, active-site directed ligand using a DNA-tagged kinase and immobilized ligand and compound.

C57BL/6 mice = assay: Two-week oral toxicity study; format: in vivo; settings: 120 mg/kg PO, two weeks
Description: Given the potential usefulness of oral administration in terms of cost and convenience, we elected to pursue this route in subsequent toxicity and efficacy pre-clinical studies. Initially, we dosed C57BL/6 mice with 120 mg/kg PO (dose chosen based on a dose escalation trial) for two weeks and analyzed the effect on complete blood counts, electrolytes, hepatic and renal function, body mass and the gross and histological appearance of the brain, heart, lungs, liver, kidneys and spleen. […] We confirmed that 5MPN caused a G1 arrest in LLC cells in vitro similar to H460 cells (Figure 4G) and then examined the number of Ki67-positive cells since Ki67 expression correlates with later S and G2 phases of the cell cycle.

[2] = test system: Large T antigen-immortalized, tamoxifen-inducible PFKFB4-/- fibroblasts; assay: Viable cell count (trypan blue exclusion); format: cell-based, mice; settings: fibroblasts ± 10 μM 4HT, 10 μM 5MPN, 24 hours
Excerpt: H460, H1299, H441, H522 and A549 non-small cell lung cancer (NSCLC), MDA-MB-231 (breast), LNCaP (prostatic) and HCT116 (colon) adenocarcinoma and Lewis lung carcinoma (LLC) cell lines were obtained from ATCC (authenticated by STR analysis) and were used within 6 months of acquisition. PFKFB4^−/− ear pinna fibroblasts isolated from TamCre/loxP/PFKFB4^−/− mice were immortalized as described previously. Normal bronchial epithelial cells (NHBE) were obtained from Lonza and NHBE cells expressing telomerase, SV40 large T antigen and activated Ras (hT/LT/Ras) were a gift from Dr. B. J. Rollins, Dana Farber Cancer Institute. All cell lines were tested and found negative for mycoplasma (PCR Mycoplasma Detection Kit, ABM). Cell lines were grown in DMEM (A549, LNCaP, MDA-MB-231, LLC and PFKFB4^−/−), RPMI 1640 (H460, H1299, H441, H522) and McCoy's 5A media (HCT116) (all from Invitrogen) containing 10% fetal calf serum (Hyclone). NHBE and hT/LT/Ras cells were grown in BEGM containing SingleQuots (Lonza). All lines were cultured at 37°C in 5% CO2. […]
Viability was determined using trypan blue exclusion as previously described. […] Cells excluding trypan blue were counted using a standard hemocytometer (Hausser Scientific) to determine total numbers of viable cells. Data are expressed as mean ± SD of three experiments.

[3] = test system: Ki67-positive cells in LLC xenografts; assay: Ki67 immunohistochemistry of LLC tumors; format: in vivo, C57BL/6 mice; settings: oral administration
Description: Five μm mounted sections of formalin-fixed, paraffin-embedded LLC tumor tissues were processed as previously described and then incubated with anti-Ki-67 primary antibody (Abcam) overnight, followed by HRP-linked goat anti-rabbit secondary antibody (1:300, Pierce). Sections were developed with 3,3′-diaminobenzidine tetrahydrochloride and counterstained as previously described. Slides were scanned using a ScanScope XT Digital Slide Scanner (Aperio), data analyzed with the positive pixel count algorithm (ImageScope, Aperio) and a minimum of 5 fields (20x magnification) were quantified for each tumor section. The data are depicted as % positive pixels/total pixels ± SD.

human recombinant PFKFB3, sequence (Q16875 whole entry): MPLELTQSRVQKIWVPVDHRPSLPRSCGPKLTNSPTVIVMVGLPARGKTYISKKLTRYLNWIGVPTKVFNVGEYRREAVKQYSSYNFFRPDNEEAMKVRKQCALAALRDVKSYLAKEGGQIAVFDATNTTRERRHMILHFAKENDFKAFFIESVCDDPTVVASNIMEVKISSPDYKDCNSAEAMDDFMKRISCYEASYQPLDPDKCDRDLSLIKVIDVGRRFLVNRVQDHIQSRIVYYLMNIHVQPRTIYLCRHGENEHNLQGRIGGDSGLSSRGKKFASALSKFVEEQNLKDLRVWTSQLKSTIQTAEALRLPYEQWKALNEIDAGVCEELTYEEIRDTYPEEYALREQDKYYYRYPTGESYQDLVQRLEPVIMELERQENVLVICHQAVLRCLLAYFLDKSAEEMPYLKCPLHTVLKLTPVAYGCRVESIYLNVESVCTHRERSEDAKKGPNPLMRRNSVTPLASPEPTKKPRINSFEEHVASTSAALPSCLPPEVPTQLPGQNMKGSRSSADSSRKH

## COc1cccc2c(NCCCCCO[N+](=O)[O-])ccnc12 [Compound 5MPN, 5-(n-(8-methoxy-4-quinolyl)amino)pentyl nitrate]
Glycolysis in H460 cells
  effect on glycolysis: reduced
H460 cells
  increase in apoptotic cells: only a minimal increase
A549 cells
  effect on proliferation: dose-dependent reduction in growth
MDA-MB-231 cells
  effect on proliferation: dose-dependent reduction in growth
LNCaP cells
  effect on proliferation: dose-dependent reduction in growth
hT/LT/Ras cells
  effect on cell growth: suppressed similar to other transformed cells
Human recombinant PFKFB3
  inhibition of PFKFB3 kinase activity: no inhibition of kinase activity
[1]
  inhibition of a panel of 97 protein kinases: not inhibited
C57BL/6 mice
  signs of toxicity (blood counts, electrolytes, hepatic and renal function, body mass, organ histology, behavior): no signs of toxicity
[2]
  effect of genomic deletion of Pfkfb4 on anti-proliferative effect: sensitized
[3]
  Ki67-positive cells: reduction
